The assay concerns the target T1, vanilloid receptor 1 (VR1/TRPV1 receptor) (Homo sapiens, UniProt Q8NER1).
T1 construct: expressed in transfected cells; host or cells: CHO K1
Briefly: Functional testing on the vanilloid receptor 1 (FLIPR Ca2+ influx assay, capsaicin stimulation). The assay is classed as cell-based. The settings on record: Cap = capsaicin, human being; for Ki: Ki from IC50 by the Cheng-Prusoff equation, read-out: (f) Ki (human being) [nM] Cap; for inhibition at 5 µM: @5 μM compound. Here is the method: Furthermore, preference may be given to compounds according to the invention that cause a 50 percent displacement of capsaicin, which is present at a concentration of 100 nM, in a FLIPR assay with CHO K1 cells which were transfected with the human VR1 gene at a concentration of less than 2,000 nM, preferably less than 1,000 nM, particularly preferably less than 300 nM, most particularly preferably less than 100 nM, even more preferably less than 75 nM, additionally preferably less than 50 nM, most preferably less than 10 nM.
In the process, the Ca^2+ influx is quantified in the FLIPR assay with the aid of a Ca^2+-sensitive dye (type Fluo-4, Molecular Probes Europe BV, Leiden, the Netherlands) in a fluorescent imaging plate reader (FLIPR, Molecular Devices, Sunnyvale, USA), as described hereinafter.
I. Functional Testing Carried Out on the Vanilloid Receptor 1 (VR1/TRPV1 Receptor) […]
The number of cells in the suspension is set to 3×10^5 per mL and 150 μL of this suspension are in each case introduced into a recess in the cell culture plates coated as described hereinbefore. In the incubator the plates are left for two to three days at 37° C., 5% by volume of CO2 and 95% relative humidity. Subsequently, the cells are loaded with 2 μM of Fluo-4 and 0.01% by volume of Pluronic F127 (Molecular Probes Europe BV, Leiden, the Netherlands) in HBSS buffer (Hank's buffered saline solution, Gibco Invitrogen GmbH, Karlsruhe, Germany) for 30 min at 37° C., washed 3 times with HBSS buffer and after further incubation for 15 minutes at room temperature used for Ca^2+ measurement in a FLIPR assay. The Ca^2+ dependent fluorescence is in this case measured before and after the addition of substances (λex=488 nm, λem=540 nm). Quantification is carried out by measuring the highest fluorescence intensity (FC, fluorescence counts) over time.
The FLIPR protocol consists of 2 substance additions. First the compounds to be tested (10 μM) are pipetted onto the cells and the Ca^2+ influx is compared with the control (capsaicin 10 μM). This provides the result in % activation based on the Ca^2+ signal after the addition of 10 μM of capsaicin (CP). After 5 minutes' incubation, 100 nM of capsaicin are applied and the Ca^2+ influx is also determined.
Desensitising agonists and antagonists lead to suppression of the Ca^2+ influx. The % inhibition is calculated compared to the maximum achievable inhibition with 10 μM of capsazepine.
Triple analyses (n=3) are carried out and repeated in at least 3 independent experiments (N=4).
Starting from the percentage displacement caused by different concentrations of the compounds to be tested of general formula I, IC50 inhibitory concentrations which cause a 50-percent displacement of capsaicin were calculated. Ki values for the test substances were obtained by conversion by means of the Cheng-Prusoff equation (Cheng, Prusoff; Biochem. Pharmacol. 22, 3099-3108, 1973).
The affinity of the compounds according to the invention for the vanilloid receptor 1 (VR1/TRPV1 receptor) was determined as described hereinbefore (pharmacological method I).

Where [1] appears, read: read-out: inhibition (as a percentage), (f) (human being) Cap.

Structures are written as SMILES.

T1 sequence (Q8NER1 whole entry): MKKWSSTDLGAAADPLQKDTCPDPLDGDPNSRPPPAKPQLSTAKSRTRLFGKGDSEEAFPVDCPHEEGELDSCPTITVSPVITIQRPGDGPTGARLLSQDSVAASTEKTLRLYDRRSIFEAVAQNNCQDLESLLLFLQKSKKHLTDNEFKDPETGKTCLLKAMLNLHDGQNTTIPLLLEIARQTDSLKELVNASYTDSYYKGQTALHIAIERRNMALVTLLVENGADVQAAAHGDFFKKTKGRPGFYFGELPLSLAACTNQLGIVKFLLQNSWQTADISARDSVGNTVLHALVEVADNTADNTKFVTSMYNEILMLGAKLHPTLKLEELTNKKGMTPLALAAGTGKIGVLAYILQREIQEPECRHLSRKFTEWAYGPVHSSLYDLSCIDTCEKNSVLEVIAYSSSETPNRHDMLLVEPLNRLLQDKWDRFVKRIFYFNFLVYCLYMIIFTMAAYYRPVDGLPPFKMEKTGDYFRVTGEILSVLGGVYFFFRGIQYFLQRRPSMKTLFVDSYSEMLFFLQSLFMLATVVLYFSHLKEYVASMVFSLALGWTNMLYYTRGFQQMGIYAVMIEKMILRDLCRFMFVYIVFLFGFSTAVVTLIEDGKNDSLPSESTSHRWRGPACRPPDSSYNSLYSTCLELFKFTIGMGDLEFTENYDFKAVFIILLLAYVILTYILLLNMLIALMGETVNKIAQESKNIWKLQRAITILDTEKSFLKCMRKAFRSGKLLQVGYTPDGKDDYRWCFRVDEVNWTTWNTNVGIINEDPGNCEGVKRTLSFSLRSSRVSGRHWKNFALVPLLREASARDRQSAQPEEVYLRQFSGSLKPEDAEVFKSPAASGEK

Regarding `CCCCCc1nc(C(F)(F)F)ccc1CNC(=O)C(C)c1ccc(CNS(C)(=O)=O)c(F)c1` (stereo not drawn) [Example 1, 2-(3-fluoro-4-(methylsulfonamidomethyl)phenyl)-N-((2-pentyl-6-(trifluoromethyl)pyridin-3-yl)methyl)propanamide], the inhibitory constant (Ki) amounted to 14 nM.

As for `COCCCc1nc(C(F)(F)F)ccc1CNC(=O)C(C)c1ccc(CNS(C)(=O)=O)c(F)c1` (stereo not drawn) [Example 2, 2-(3-fluoro-4-(methylsulfonamidomethyl)phenyl)-N-((2-(3-methoxypropyl)-6-(trifluoromethyl)pyridin-3-yl)methyl)propanamide], the inhibition at 5 µM under setting [1] was found to be 18%.

On to `COCCOCc1nc(C(F)(F)F)ccc1CNC(=O)C(C)c1ccc(CNS(C)(=O)=O)c(F)c1` (stereo not drawn) [Example 3, 2-(3-fluoro-4-(methylsulfonamidomethyl)phenyl)-N-((2-((2-methoxyethoxy)methyl)-6-(trifluoromethyl)pyridin-3-yl)methyl)propanamide], for which the inhibition at 5 µM under setting [1] stood at 13%.

`CC(C(=O)NCc1ccc(C(F)(F)F)nc1/C=C/C(C)(C)C)c1ccc(CNS(C)(=O)=O)c(F)c1` (stereo not drawn) [Example 4, (E)-N-((2-(3,3-dimethylbut-1-enyl)-6-(trifluoromethyl)pyridin-3-yl)methyl)-2-(3-fluoro-4-(methylsulfonamidomethyl)phenyl)propanamide]: the Ki came to 12 nM.

On to `CC(C(=O)NCc1ccc(C(F)(F)F)nc1C1CCCC1)c1ccc(CNS(C)(=O)=O)c(F)c1` (stereo not drawn) [Example 5, N-((2-cyclopentyl-6-(trifluoromethyl)pyridin-3-yl)methyl)-2-(3-fluoro-4-(methylsulfonamidomethyl)phenyl)propanamide], for which the inhibitory constant (Ki) stood at 13 nM.

For the molecule `CC(C(=O)NCc1ccc(C(F)(F)F)nc1C1CCCCC1)c1ccc(CNS(C)(=O)=O)c(F)c1` (stereo not drawn) [Example 6, N-((2-cyclohexyl-6-(trifluoromethyl)pyridin-3-yl)methyl)-2-(3-fluoro-4-(methylsulfonamidomethyl)phenyl)propanamide], the Ki is 15 nM.

In the case of `CC(C)Oc1nc(C(F)(F)F)ccc1CNC(=O)C(C)c1ccc(CNS(C)(=O)=O)c(F)c1` (stereo not drawn) [Example 15, 2-(3-fluoro-4-(methylsulfonamidomethyl)phenyl)-N-((2-isopropoxy-6-(trifluoromethyl)pyridin-3-yl)methyl)propanamide], the inhibitory constant (Ki) worked out at 37 nM.

For `CCCCOc1nc(C(F)(F)F)ccc1CNC(=O)C(C)c1ccc(CNS(C)(=O)=O)c(F)c1` (stereo not drawn) [Example 16, N-((2-butoxy-6-(trifluoromethyl)pyridin-3-yl)methyl)-2-(3-fluoro-4-(methylsulfonamidomethyl)phenyl)propanamide], the inhibition constant Ki was 8 nM.

Regarding `CC(C(=O)NCc1ccc(C(F)(F)F)nc1OC1CCCC1)c1ccc(CNS(C)(=O)=O)c(F)c1` (stereo not drawn) [Example 20, N-((2-(cyclopentyloxy)-6-(trifluoromethyl)pyridin-3-yl)methyl)-2-(3-fluoro-4-(methylsulfonamidomethyl)phenyl)propanamide], the Ki was 13 nM.

As for `CC(C(=O)NCc1ccc(C(F)(F)F)nc1OC1CCOCC1)c1ccc(CNS(C)(=O)=O)c(F)c1` (stereo not drawn) [Example 25, 2-(3-fluoro-4-(methylsulfonamidomethyl)phenyl)-N-((2-(tetrahydro-2H-pyran-4-yloxy)-6-(trifluoromethyl)pyridin-3-yl)methyl)propanamide], the inhibition constant (Ki) was 111 nM.

In the case of `COc1cc(C(C)C(=O)NCc2ccc(C(F)(F)F)nc2OC(C)C)ccc1CNS(C)(=O)=O` (stereo not drawn) [Example 27, N-((2-isopropoxy-6-(trifluoromethyl)pyridin-3-yl)methyl)-2-(3-methoxy-4-(methylsulfonamidomethyl)phenyl)propanamide], the inhibition at 1 µM (@1 μM compound, read-out: inhibition (as a percentage), (f) (human being) Cap) is 15%.

In the case of `CCCCOc1nc(C(F)(F)F)ccc1CNC(=O)C(C)c1ccc(CNS(C)(=O)=O)c(OC)c1` (stereo not drawn) [Example 29, N-((2-butoxy-6-(trifluoromethyl)pyridin-3-yl)methyl)-2-(3-methoxy-4-(methylsulfonamidomethyl)phenyl)propanamide], the Ki was found to be 61 nM.

As a reminder, the Ki is the dissociation constant of the complex between target and ligand, obtained from inhibition or displacement. The term inhibition denotes the share of the control response that was lost under treatment.

The values are drawn from patent US20130079373A1, “Substituted Methanesulfonamide Derivatives as Vanilloid Receptor Ligands” (priority 2011, published 2013).
